Laboratory results as given in ChEMBL document CHEMBL1201861, “Genomics of Drug Sensitity in Cancer screening data, Wellcome Trust Sanger Institute”.

Columns and labels:
Test in all cases: cells
Type in all cases: functional, cell-based, Homo sapiens
[1] = system: COR-L105;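 further: cell growth inhibition determined with a viability assay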
Description: SANGER: Inhibition of human COR-L105 cell growth in a cell viability assay.

[2] = system: Calu-3;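 further: growth inhibition of human Calu-3 cells, determined with a cell viability assay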
Description: SANGER: Inhibition of human Calu-3 cell growth in a cell viability assay.

[3] = system: D-423MG
Description: SANGER: Inhibition of human D-423MG cell growth in a cell viability assay.

[4] = system: EPLC-272H
Description: SANGER: Inhibition of human EPLC-272H cell growth in a cell viability assay.

[5] = system: HCT-15;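 further: cell viability readout, IC50 reflecting suppression of HCT-15 cell growth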
Description: SANGER: Inhibition of human HCT-15 cell growth in a cell viability assay.

[6] = system: HLE;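 further: growth inhibition of human HLE cells, read out by a cell viability assay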
Description: SANGER: Inhibition of human HLE cell growth in a cell viability assay.

[7] = system: HSC-2;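 further: growth inhibition of human HSC-2 cells, read out by a cell viability assay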
Description: SANGER: Inhibition of human HSC-2 cell growth in a cell viability assay.

[8] = system: HT-1376
Description: SANGER: Inhibition of human HT-1376 cell growth in a cell viability assay.

[9] = system: HT-29;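 further: growth inhibition of human HT-29 cells, read out by a cell viability assay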
Description: SANGER: Inhibition of human HT-29 cell growth in a cell viability assay.

[10] = system: HT55;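 further: cell viability readout measuring growth inhibition of human HT55 cells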
Description: SANGER: Inhibition of human HT55 cell growth in a cell viability assay.

[11] = system: JEG-3;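 further: growth inhibition of human JEG-3 cells, read out with a cell viability assay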
Description: SANGER: Inhibition of human JEG-3 cell growth in a cell viability assay.

[12] = system: MFE-280;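 further: growth inhibition of MFE-280 cells, determined with a cell viability readout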
Description: SANGER: Inhibition of human MFE-280 cell growth in a cell viability assay.

[13] = system: NB14;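 further: growth inhibition of NB14 cells measured with a cell viability assay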
Description: SANGER: Inhibition of human NB14 cell growth in a cell viability assay.

[14] = system: NCI-H1573;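 further: growth inhibition of NCI-H1573 cells, read out with a cell viability assay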
Description: SANGER: Inhibition of human NCI-H1573 cell growth in a cell viability assay.

[15] = system: NCI-H1792;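 further: growth inhibition of human NCI-H1792 cells, read out as cell viability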
Description: SANGER: Inhibition of human NCI-H1792 cell growth in a cell viability assay.

[16] = system: NCI-H1993;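 further: growth inhibition of the cancer cell line, assessed with a cell viability assay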
Description: SANGER: Inhibition of human NCI-H1993 cell growth in a cell viability assay.

[17] = system: NCI-H2009;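 further: cell viability assay measuring inhibition of NCI-H2009 cell growth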
Description: SANGER: Inhibition of human NCI-H2009 cell growth in a cell viability assay.

[18] = system: NCI-H2122;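 further: growth inhibition of the cells, read out with a cell viability assay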
Description: SANGER: Inhibition of human NCI-H2122 cell growth in a cell viability assay.

[19] = system: NCI-H2342;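 further: growth inhibition of the cancer cell line, determined with a cell viability assay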
Description: SANGER: Inhibition of human NCI-H2342 cell growth in a cell viability assay.

[20] = system: NCI-H441;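 further: growth inhibition of NCI-H441 cells, read out with a cell viability assay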
Description: SANGER: Inhibition of human NCI-H441 cell growth in a cell viability assay.

[21] = system: NCI-H596;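 further: growth inhibition of NCI-H596 cells, read out with a cell viability assay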
Description: SANGER: Inhibition of human NCI-H596 cell growth in a cell viability assay.

[22] = system: NCI-H661;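 further: cell viability assay read-out, IC50 being the concentration that inhibits growth of the cells by half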
Description: SANGER: Inhibition of human NCI-H661 cell growth in a cell viability assay.

[23] = system: NCI-H810;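 further: IC50 reflects inhibition of cancer cell line growth, read out with a cell viability assay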
Description: SANGER: Inhibition of human NCI-H810 cell growth in a cell viability assay.

[24] = system: P12-Ichikawa
[25] = system: RMG-I;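 further: growth inhibition of human RMG-I cells, read out with a cell viability assay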
Description: SANGER: Inhibition of human RMG-I cell growth in a cell viability assay.

[26] = system: RO82-W-1;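 further: growth inhibition of human RO82-W-1 cells, measured with a cell viability assay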
Description: SANGER: Inhibition of human RO82-W-1 cell growth in a cell viability assay.

[27] = system: RPMI-7951
Description: SANGER: Inhibition of human RPMI-7951 cell growth in a cell viability assay.

[28] = system: SAS;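 further: growth inhibition of SAS cells, read out with a cell viability assay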
Description: SANGER: Inhibition of human SAS cell growth in a cell viability assay.

[29] = system: SK-LU-1;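 further: cell viability assay measuring growth inhibition of human SK-LU-1 cells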
Description: SANGER: Inhibition of human SK-LU-1 cell growth in a cell viability assay.

[30] = system: SK-N-AS;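 further: growth inhibition of human SK-N-AS cells, measured with a cell viability assay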
Description: SANGER: Inhibition of human SK-N-AS cell growth in a cell viability assay.

[31] = system: SW1088;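 further: growth inhibition of human SW1088 cells, read out by a cell viability assay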
Description: SANGER: Inhibition of human SW1088 cell growth in a cell viability assay.

[32] = system: SW948;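 further: growth inhibition of SW948 cells, read out with a cell viability assay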
Description: SANGER: Inhibition of human SW948 cell growth in a cell viability assay.

[33] = system: T84;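 further: growth inhibition measured with a cell viability readout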
Description: SANGER: Inhibition of human T84 cell growth in a cell viability assay.

[34] = system: AGS;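 further: growth inhibition of AGS cells, determined with a cell viability assay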
Description: SANGER: Inhibition of human AGS cell growth in a cell viability assay.

[35] = system: AU565;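 further: cell viability assay measuring growth inhibition of human AU565 cells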
Description: SANGER: Inhibition of human AU565 cell growth in a cell viability assay.

[36] = system: BEN; conditions: Homo sapiens, BEN;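 further: growth inhibition of the BEN cell line, read out with a cell viability assay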
Description: SANGER: Inhibition of human BEN cell growth in a cell viability assay.

[37] = system: BFTC-905
Description: SANGER: Inhibition of human BFTC-905 cell growth in a cell viability assay.

[38] = system: BT-549
Description: SANGER: Inhibition of human BT-549 cell growth in a cell viability assay.

[39] = system: CAL-72;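 further: cell viability assay measuring inhibition of proliferation in the CAL-72 cell line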
Description: SANGER: Inhibition of human CAL-72 cell growth in a cell viability assay.

[40] = system: UACC-62;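 further: growth inhibition of human UACC-62 cells, read out by a cell viability assay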
Description: SANGER: Inhibition of human UACC-62 cell growth in a cell viability assay.

[41] = system: UMC-11;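 further: growth inhibition of UMC-11 cells, read out with a cell viability assay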
Description: SANGER: Inhibition of human UMC-11 cell growth in a cell viability assay.

[42] = system: CAMA-1;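 further: growth inhibition of CAMA-1 cells, read out with a cell viability assay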
Description: SANGER: Inhibition of human CAMA-1 cell growth in a cell viability assay.

Compound: CS(=O)(=O)c1ccc(C(=O)Nc2ccc(Cl)c(-c3ccccn3)c2)c(Cl)c1 [VISMODEGIB]
- IC50 ([1]; Homo sapiens, COR-L105): > 10 µM
- IC50 ([2]; Homo sapiens, Calu-3): > 10 µM
- IC50 ([3]; Homo sapiens, D-423MG): > 10 µM
- IC50 ([4]; Homo sapiens, EPLC-272H): > 10 µM
- IC50 ([5]; Homo sapiens, HCT-15): > 10 µM
- IC50 ([6]; Homo sapiens, HLE): > 10 µM
- IC50 ([7]; Homo sapiens, HSC-2): > 10 µM
- IC50 ([8]; Homo sapiens, HT-1376): > 10 µM
- IC50 ([9]; Homo sapiens, HT-29): > 10 µM
- IC50 ([10]; Homo sapiens, HT55): > 10 µM
- IC50 ([11]; Homo sapiens, JEG-3): > 10 µM
- IC50 ([12]; Homo sapiens, MFE-280): > 10 µM
- IC50 ([13]; Homo sapiens, NB14): > 10 µM
- IC50 ([14]; Homo sapiens, NCI-H1573): > 10 µM
- IC50 ([15]; Homo sapiens, NCI-H1792): > 10 µM
- IC50 ([16]; Homo sapiens, NCI-H1993): > 10 µM
- IC50 ([17]; Homo sapiens, NCI-H2009): > 10 µM
- IC50 ([18]; Homo sapiens, NCI-H2122): > 10 µM
- IC50 ([19]; Homo sapiens, NCI-H2342): > 10 µM
- IC50 ([20]; Homo sapiens, NCI-H441): > 10 µM
- IC50 ([21]; Homo sapiens, NCI-H596): > 10 µM
- IC50 ([22]; Homo sapiens, NCI-H661): > 10 µM
- IC50 ([23]; Homo sapiens, NCI-H810): > 10 µM
- IC50 ([24]; Homo sapiens, P12-Ichikawa): > 10 µM
- IC50 ([25]; Homo sapiens, RMG-I): > 10 µM
- IC50 ([26]; Homo sapiens, RO82-W-1): > 10 µM
- IC50 ([27]; Homo sapiens, RPMI-7951): > 10 µM
- IC50 ([28]; Homo sapiens, SAS): > 10 µM
- IC50 ([29]; Homo sapiens, SK-LU-1): > 10 µM
- IC50 ([30]; Homo sapiens, SK-N-AS): > 10 µM
- IC50 ([31]; Homo sapiens, SW1088): > 10 µM
- IC50 ([32]; Homo sapiens, SW948): > 10 µM
- IC50 ([33]; Homo sapiens, T84): > 10 µM
- IC50 ([34]; Homo sapiens, AGS): > 10 µM
- IC50 ([35]; Homo sapiens, AU565): > 10 µM
- IC50 [36]: > 10 µM
- IC50 ([37]; Homo sapiens, BFTC-905): > 10 µM
- IC50 ([38]; Homo sapiens, BT-549): > 10 µM
- IC50 ([39]; Homo sapiens, CAL-72): > 10 µM
- IC50 ([40]; Homo sapiens, UACC-62): > 10 µM
- IC50 ([41]; Homo sapiens, UMC-11): > 10 µM
- IC50 ([42]; Homo sapiens, CAMA-1): > 10 µM

Compound: CISPLATIN
- IC50 ([1]; cor-l105): 22.7 µM
- IC50 ([2]; calu-3): 582 µM
- IC50 ([3]; d-423mg): 13.9 µM
- IC50 ([4]; eplc-272h): 13 µM
- IC50 ([5]; hct-15): 267 µM
- IC50 ([6]; hle): 6.06 µM
- IC50 ([7]; hsc-2): 129 µM
- IC50 ([8]; ht-1376): 98.9 µM
- IC50 ([9]; ht-29): 610 µM
- IC50 ([10]; ht55): 118 µM
- IC50 ([11]; jeg-3): 10.3 µM
- IC50 ([12]; mfe-280): 626 µM
- IC50 ([13]; nb14): 171 µM
- IC50 ([14]; nci-h1573): 112 µM
- IC50 ([15]; nci-h1792): 14.9 µM
- IC50 ([16]; nci-h1993): 1350 µM
- IC50 ([17]; nci-h2009): 496 µM
- IC50 ([18]; nci-h2122): 15.3 µM
- IC50 ([19]; nci-h2342): 53.8 µM
- IC50 ([20]; nci-h441): 199 µM
- IC50 ([21]; nci-h596): 305 µM
- IC50 ([22]; nci-h661): 13.6 µM
- IC50 ([23]; nci-h810): 273 µM
- IC50 ([24]; p12-ichikawa): 2.04 µM
- IC50 ([25]; rmg-i): 1150 µM
- IC50 ([26]; ro82-w-1): 72.1 µM
- IC50 ([27]; rpmi-7951): 4.06 µM
- IC50 ([28]; sas): 18.5 µM
- IC50 ([29]; sk-lu-1): 7.38 µM
- IC50 ([30]; sk-n-as): 38 µM
- IC50 ([31]; sw1088): 9.7 µM
- IC50 ([32]; sw948): 222 µM
- IC50 ([33]; t84): 356 µM
- IC50 ([34]; ags): 24.6 µM
- IC50 ([35]; au565): 52.5 µM
- IC50 ([37]; bftc-905): 2.58 µM
- IC50 ([38]; bt-549): 14.6 µM
- IC50 ([39]; cal-72): 23.4 µM
- IC50 ([40]; uacc-62): 12.4 µM
- IC50 ([41]; umc-11): 903 µM
- IC50 ([42]; cama-1): 117 µM
